Columns and labels:
[1] = tested on: rat brain (caudatoputamen nucleus); experiment: Brain blood flow in rats by H2 clearance (Example 12); assay type: in vivo; settings: rats breathing 21% O2; 100 or 1000 nmol/kg
Description: SNO-Hb(FeII)O2, having a SNO/Hb ratio of 2, was prepared (from HbA0) by reaction with S-nitrosothiol. Rats breathing 21% O2 were injected (time 0) with Hbs prepared from HbA0 as indicated in FIG. 10 (open circles, SNO-Hb (100 nmol/kg); filled circles, SNO-Hb (1000 nmol/kg); filled squares, unmodified Hb (1000 nmol/kg)). Three rats were used per experiment. Blood flow was measured in brain using the H2 clearance method; microelectrodes were placed in the brain stereotactically. […] NO group release is promoted by local tissue hypoxia.

[2] = tested on: substantia nigra, caudate putamen nucleus and parietal cortex of Sprague-Dawley rats; experiment: O2-dependent local cerebral blood flow in rats (Example 25); assay type: in vivo, rat; settings: 1 μmol/kg infused over 3 minutes
Description: Adult male Sprague-Dawley rats (290-350 g) were anesthetized with sodium pentobarbital (50 mg/kg IP), intubated and ventilated with a small animal respirator (Edco Scientific Inc., Chapel Hill, N.C.) at a rate and tidal volume to maintain normal values of PaCO2 (35-45 mm Hg; PaCO2=systemic arterial blood carbon dioxide tension). The femoral vein and artery were cannulated for infusion of drugs and for continuous monitoring of systemic blood pressure, respectively. Aliquots of arterial blood (200 μl) were drawn periodically to measure blood gas tensions and pH (Instrumentation Laboratory Co., model 1304 blood gas/pH analyzer). The blood was replaced intravenously with three volumes of normal saline. The inspired O2 concentration was varied using premixed gases balanced with nitrogen. The tissue PO2 was measured continuously with polarographic platinum microelectrodes (50 μm O.D. coated with hydrophobic gas permeable Nafion) implanted stereotaxically in both the right and left hippocampus (AP-3.4 mm, ML+2.2 mm), caudate putamen nucleus and substantia nigra (see coordinates below) (Young, W., Stroke, 11:552-564 (1980); Heiss, W. D. and Traupett, H., Stroke, 12:161-167 (1981); Dewhirst, M. W. et al., Cancer Res., 54:3333-3336 (1994); Kerger, H. et al., Am. J. Physiol., 268:H802-H810 (1995)). The PO2 electrodes were polarized to −0.65V against a distant Ag/AgCl reference located on the tail and the current flow was measured using a low-impedance nA-meter. Regional arterial PO2 was adjusted by changing the inspired O2 concentration and atmospheric pressure.
Polarographic hydrogen (H2)-sensitive microelectrodes were implanted stereotaxically in the substantia nigra (AP −5.3 mm, ML −2.4 mm to the bregma, depth 3.2 mm), caudate putamen nucleus (CPN) (AP +0.8 mm, ML −2.5 mm, depth 5.2 mm) and parietal cortex, for measurement of regional blood flow (Young, W., Stroke, 11:552-564 (1980); Heiss, W. D. and Traupett, H., Stroke, 12:161-167 (1981)). The microelectrodes were made from platinum wire and insulated with epoxy, with the exception of the tip (1 mm) which was coated with Nafion. For placement, the electrodes were mounted on a micromanipulator and the rat's head was immobilized in a Kopf stereotaxic frame. H2-sensitive electrodes were polarized to +400 mV against a distant reference electrode on the tail, and the polarographic current was measured using a low-impedance nA meter during and after the inhalation of hydrogen gas (2.5%) for 1 min. Both the hydrogen clearance curves and voltage for oxygen measurements were made using PC WINDAQ (software, DI-200 AC, Dataq Instruments, Inc., Akron, Ohio). Cerebral blood flow was calculated using the initial slope method (Young, W., Stroke, 11:552-564 (1980); Heiss, W. D. and Traupett, H., Stroke, 12:161-167 (1981)). Regional blood flow responses were monitored for 30 min. prior to and 30 min. following drug administration; hemoglobins were given at time 0.
The cerebrovascular effects of SNO-Hb were measured in adult male Sprague-Dawley rats using O2 and H2 (blood flow)-sensitive microelectrodes that were placed stereotaxically in several regions of the brain as for Example 24.

[3] = tested on: rabbit thoracic aortic rings, endothelium removed; experiment: Oxygen-dependent vessel ring bioassay (Examples 22, 23); assay type: cell-based
[4] = tested on: rabbit thoracic aorta rings; experiment: Rabbit aortic ring bioassay: vessel tone and ACh (EDRF)-mediated relaxation; assay type: cell-based; settings: 1 μM addition; ACh-mediated relaxation of rabbit aortic ring
Text: The effects of native Hb on EDRF responses were compared with Hb preparations in which the thiol or heme centers had been blocked by alkylation or cyanmet derivitization, respectively. All preparations of Hb elicited contractions; however, those of native Hb (in which both SH and metal centers are free for interaction) were most pronounced. […] Relaxations were inhibited to lesser degrees by cyanmet Hb (CN-Hb) (in which hemes were blocked from reaction) and NEM-Hb (in which thiol groups were alkylated by N-ethylmaleimide). […] Direct measurement of SNO-Hb, formed from EDRF under similar conditions, is described in Example 8.
Descending rabbit thoracic aorta were cut into 3 mm rings and mounted on stirrups attached to force transducers (model FT03, Grass Instruments, Quincy, Mass.) for measurement of isometric tone. The details of this bioassay system have been previously described (Stamler, J. S., et al., Proc. Natl. Acad. Sci. USA, 89:444-448 (1992)). Cyanmet Hb was prepared from human HbA according to published protocols (Kilbourn, R. G. et al. Biochem. Biophys. Res. Comm., 199:155-162, (1994)). Alkylation of HbA with N-ethylmaleimide was followed by desalting across G-25 Sephadex to remove excess NEM. Removal of unmodified Hbcysβ93 was achieved by passage through Hg-containing affinity columns. The alkylation of free SH groups was verified using 5,5′-dithio-bis[2-nitrobenzoic acid].

Hb: native, underivatized human hemoglobin A purified from red cells
blood flow to the brain [1]: decreases blood flow
local cerebral blood flow ([2]; 21% O2): decreased local blood flow
local cerebral blood flow ([2]; 100% O2 + 3 ATA): tended to decrease cerebral flow to similar extents
local cerebral blood flow ([2]; 100% O2): preserved
effect on vessel tone ([3]; 1 μM, rings contracted with phenylephrine under hypoxic conditions (6-7 torr)): progressive increases in vessel tone
effect of 10 μM glutathione on the response ([3]; 10 μM glutathione in bioassay chambers): no effect
effect on vessel tension ([3]; 95% O2 or 21% O2 (R-structure)): contract blood vessels
effect on vessel tension ([3]; <1% O2 (~6 torr), T-structure): strongly contracts blood vessels
% ACh RELAXATION [4]: 31.9 ± 6.9 (n = 7) %

Source: patent US7538193B2, “NO-modified hemoglobins and uses therefor” (Duke University, priority 1995, dated 2009)
